Measurements taken from patent US20060151899A1, “Process for producing drug ultramicroparticle and apparatus therefor” (priority 2004, published 2006).

Test: Solubility under substantially physiological conditions
Assay type: physicochemical
Settings: pH 5 to 7

Solubility: insoluble or slightly soluble
SMILES: NS(=O)(=O)c1ccc(S(=O)(=O)Nc2cccc3c(Cl)c[nH]c23)cc1 [N-(3-chloro-7-indolyl)-1,4-benzenedisulfonamide]
